Among the data in a melting point compilation (Tetko et al.; mined from patent text by program, amines drawn as free bases though some values may be those of a salt) are melting point values, retold here.

Each structure is given as a SMILES string. Bounds are passed on as bounds.

In general, melting point refers to the temperature of the solid-liquid transition.

Consider `ClCOc1ccc2ccccc2c1`, for which the melting point amounted to 70 °C. `COc1cc(OC)nc(C(C(=O)O)C(C)C)n1` (centres undefined) yielded a melting point of 99 to 101 °C. In the case of `COc1ccc(OC)c(S(=O)(=O)NC(=O)C(C)Oc2cc(-n3nc(C)n(C(F)F)c3=O)c(F)cc2Cl)c1` (centres undefined) it was 168 to 172 °C; in that of `CCn1c(=O)c(-c2c(Cl)cccc2Cl)cc2cnc(NCCCN3CCN(C)CC3)nc21`, 126 to 128 °C; in that of `CCCCN(CCCC)c1ccc(C=Cc2ccc(C=CC3=C(C#N)C(=C(C#N)C#N)OC3(C)C(F)(F)F)cc2)c(OC)c1` (centres undefined), 175 to 177 °C. Turning to `COc1ccc(N=Nc2ccc(O)c(C(=O)Nc3ccc4cn[nH]c4c3)c2)cc1`, the melting point is 279 °C. Regarding `COC(=O)N[C@@H](Cc1ccccc1)[C@H](O)CN1C[C@H]2CCCC[C@H]2C[C@H]1C(=O)NOC(C)(C)C`, the melting point was in the range of 194 to 195 °C. In the case of `CC(C)(O)c1cccc(-c2ccc3nc(-c4ccc(Cl)cc4)cn3c2)c1Cl` it was 230 to 231 °C; in that of `CCOC(=O)c1cccc([N+](=O)[O-])c1NC(=O)OC(C)(C)C`, 104 to 105 °C. As to `O=C(O)COc1cccc(CN2C(=O)C3(COc4cc5c(cc43)CCO5)c3ccccc32)c1` (centres undefined), the melting point was 95 to 96 °C. In the case of `CCCCCCCCCCCCCCCCSCC(CNS(=O)(=O)CCCI)NC(C)=O` (centres undefined), the melting point lay within 75 to 76 °C. Take `OCC1OC(n2cnc3c(-c4ccccc4)ncnc32)C(O)C1O` (centres undefined): the melting point is 224 to 225 °C. For the molecule `N#Cc1ccc(Oc2ccc([N+](=O)[O-])c(Oc3ccccc3)c2Cl)cc1`, the melting point is 140 to 142 °C.

`COc1ccc([N+](=O)[O-])c2c1CCC(C(=O)Nc1ccc(N3CCOCC3)cc1)C2` (centres undefined) gave a melting point of 251 to 253 °C. In turn, `CC(=O)CN1C(=O)c2ccccc2C12OCCO2` registered a melting point of 91 to 93 °C. The result for `CNCCC1=C(C#N)C(c2cccc3nonc23)c2c[nH]nc2N1` (centres undefined) reads 174 °C. `Nc1ccc(S(=O)(=O)c2cc(-c3ccc(Cl)cc3)nc(N3CCCC3)c2)cc1` yielded a melting point of 236 to 237 °C. `CN(CCCCC(=O)N1CCN(c2nc3cc(C(=O)Nc4nc(C(C)(C)C)cs4)ccn3c(=O)c2/C=C/C(=O)O)CC1)CC(=O)O` registered a melting point of 169 to 172 °C. Molecule `COc1ccc(C(O)c2ccc3cc(OC)ccc3c2)c(F)c1` (centres undefined) showed a melting point of 68 to 69 °C.

For the molecule `O=C(CCC(=O)Oc1cc(O)cc(O)c1)Oc1cc(O)cc(O)c1`, the melting point lay within 213 to 217 °C. `O=C1N(Cc2ccc(Cl)s2)c2cccc(Cl)c2C12COc1cc3c(cc12)OCO3` (centres undefined) displayed a melting point of 167 to 168 °C.

`CCCCOC(=O)C=CCOc1ccc(F)c(C(N)=O)c1F`: the melting point was below 40 °C. `COC(=O)[C@@]12CN(Cc3ccccc3)C[C@@H]1[C@@](O)(c1ccc(C)cc1)CC[C@H]2c1ccccc1` (racemic) returned a melting point of 164 °C. `CC(C)C(=O)Oc1ccc2c(c1)OCN(CCO[N+](=O)[O-])C2=O` yielded a melting point of 70 to 71 °C. Consider `CC1CCC(C(C)C)C(OC(=O)C2(CC(N)=O)C(=O)N(Cc3ccc(Br)cc3F)C(=O)c3cccn32)C1` (centres undefined), for which the melting point was 122 to 123 °C. Turning to `COC(=O)c1cc(O)cc(OCCCOc2ccc(OCc3ccccc3)cc2)c1`, the melting point was in the range of 120 to 122 °C. In the case of `O=Cc1cc([N+](=O)[O-])ccc1Br` it was 86 to 88 °C; in that of `COC(=O)c1cc(NC(=O)OC(C)(C)C)c(N)cc1C#Cc1ccccc1`, 164 °C. Turning to `CNC(=S)Nc1ccccc1`, the melting point worked out at 113 °C. Molecule `CC(=O)N1CCN=C1Nc1cccc2c1CCCC2` came in with a melting point of 142 to 144 °C. In the case of `Cc1cccc(C(O)c2ocnc2C)c1` (centres undefined), the melting point was 76.5 to 77.5 °C.

Consider `COC(=O)C1=C(C)NC(C)=C(C(=O)NCCCN2CCN(c3ccccc3OC)CC2)C1c1cccc([N+](=O)[O-])c1` (centres undefined), for which the melting point fell in the range of 70 to 80 °C.

On to `COc1ccc2c(=O)ccn(CCN3CCC(NC(=O)OC(C)(C)C)CC3)c2c1`, for which the melting point was determined as 207 °C. `CS(=O)(=O)c1ccc(-c2cnn(-c3ccc(F)c(Cl)c3)c(=O)c2Cc2ccccc2)cc1` came in with a melting point of 164 to 166 °C. In the case of `COc1cc(C(=O)NCCC2Cc3c(C)c(OCc4ccccc4)c(C)c(C)c3O2)cc(OC)c1OC` (racemic) it was 171 to 173 °C; in that of `O=C(O)CCn1ccn([C@H]2CCc3c(F)cc(F)cc3C2)c1=S`, 182 to 184 °C. In the case of `Cc1ccccc1N(CCC(=O)O)C(=O)Cl`, the melting point amounted to 112 °C. The result for `CN(N)c1cc(Cl)ncn1` reads 182 to 185 °C; that for `O=C(c1ccccc1)N(c1ccccc1)c1ccc(OCc2ccccc2)cc1`, 141 to 143 °C. `CC(C)(C)OC(=O)N1CCC(CN2C(=O)C3(COc4cc5c(cc43)CCO5)c3ccccc32)CC1` (centres undefined): the melting point fell in the range of 96 to 98 °C. The molecule `O=S(=O)(CC=Cc1ccccc1)CCCO` returned a melting point of 86 °C.

With `OCCNC(=S)NC(Cc1cccs1)c1ccccc1` (centres undefined), the melting point was in the range of 109 to 112 °C. Take `Nc1cc(=O)[nH]c2c1cnn2-c1ccccc1`: the melting point lay in the range of 223 to 225 °C.

The molecule `O=C(O)CCc1nc2c(F)c(F)cc(F)c2s1` had a melting point of 123 to 125 °C. Molecule `CC(C)CC(=O)c1cc2ccncc2[nH]1` gave a melting point of 215 to 218 °C. Take `Cc1nnc2n1-c1sccc1C(c1ccccc1[N+](=O)[O-])=NC2`: the melting point lay within 260 to 262 °C. `CCCCCCSc1ncnc2c1ncn2C1CC(F)C(CO)O1` (centres undefined) showed a melting point of 46 to 49 °C. `CCCCCCC(=O)c1ccc(O)c(Cl)c1Cl` registered a melting point of 82 to 84 °C. On to `COc1cccc(CC(=O)O)c1OCCc1cn(-c2ccc(C(F)(F)F)cn2)nc1C(C)C`, for which the melting point fell in the range of 165 to 166 °C. The result for `CC(N=Cc1ccc(O)cc1)c1ccc([N+](=O)[O-])cc1` (single isomer, unassigned; (-)) reads 118 to 120 °C; that for `CC(C)(C(=O)c1ccc(SCCCCCCS)cc1)N1CCOCC1`, 61 to 64 °C.

Regarding `COC(=O)CCC(=O)c1ccc(-c2ccc(Cl)c(Cl)c2)cc1`, the melting point is 120 to 121 °C. The molecule `COc1cc(C)c(C(=O)CCCCCCCCCCCO)c(O)c1OC` returned a melting point of 82 °C. `COC(=O)CCc1cc2cc(Cl)ccc2n1S(=O)(=O)c1ccc2nc(NC(C)=O)sc2c1` returned a melting point of 217 to 221 °C. The molecule `CCCC(CCC)n1nnc2c(Nc3c(Br)cc(OC)cc3OC)nc(C)cc21` had a melting point of 140 to 141 °C. Molecule `N#CCNS(=O)(=O)c1ccc([N+](=O)[O-])cc1` came in with a melting point of 115 to 120 °C.

For `CCOC(=O)C1=C(N)NC(c2ccccc2)=CC1c1cccc([N+](=O)[O-])c1` (centres undefined), the melting point was 171 to 172 °C. On to `CCn1ncc2c(NN=C(C)C)c(C(N)=O)cnc21`, for which the melting point was 217 to 218 °C. Consider `CCOCCOc1ccc(-c2ccc3c(c2)C=C(C(=O)OC)CCN3)cc1`, for which the melting point fell in the range of 102 to 108 °C. In the case of `CCCc1c(COc2ccc(C(=O)c3cccc(-c4nnn[nH]4)c3)cc2)ccc(C(C)=O)c1O` it was 208 to 214 °C. With `NCC(O)COc1cc([N+](=O)[O-])ccc1N` (centres undefined), the melting point was found to be 141 °C. In the case of `CN1CCN(c2cccc3c2C[C@H](NC(=O)c2ccc(C#N)cc2)CC3)CC1` it was 184 to 186 °C; in that of `CN(C(=O)CBr)c1ccc(Cl)cc1C(=O)c1ccccc1Cl`, 86 °C; in that of `CC(C)(C)OC(=O)NC[C@H]1CC[C@H](COS(C)(=O)=O)CC1`, 105 to 107 °C. The result for `CC(C(=O)O)c1cc(=O)n(Cc2ccc(Cl)cc2)c2ccc(Cl)cc12` (centres undefined) reads 192 to 194 °C; that for `CCOC(=O)c1cc(Br)c(C(=O)OCC)cc1F`, 30 °C; that for `CC(=O)Nc1cc(NC(C)=O)cc([N+](=O)[O-])c1`, above 290 °C.

The molecule `CCOc1ccc2c(c1)n(C1CCCCC1)c(=O)n2Cc1ccc(NC(=O)N(C)CCO)cc1OC` came in with a melting point of 157 °C. The molecule `CSc1nn2c(N3CCN(C)CC3)cc(C)nc2c1S(=O)(=O)c1ccccc1` had a melting point of 209 to 210 °C. `COC(=O)c1cccnc1NS(=O)(=O)NC(C)C`: the melting point fell in the range of 121 to 123 °C. The molecule `CCNC(=O)n1cc(F)c(NC(C)=O)nc1=O` yielded a melting point of 233 to 235 °C.

The molecule `CCCC(=O)c1noc2ccccc12` returned a melting point of 33 to 35 °C. On to `O=c1c2cc(F)c(N3CCCC3)c(F)c2n(C2CC2)c(=O)n1O`, for which the melting point was in the range of 228 to 230 °C. In the case of `CN1CCCC1c1ccc(CCNC(=O)c2ccc(Br)cc2)cc1` (centres undefined) it was 133 to 134 °C; in that of `O=CC1c2cccc(Cl)c2C(C=O)c2cccc(Cl)c21` (centres undefined), 160 to 172 °C. For the molecule `Nc1c2c(nc3ccc(F)cc13)-c1ccccc1CC2`, the melting point was in the range of 158 to 159 °C. `CSc1ccc(C(=O)O)c(C(F)(F)F)c1F` gave a melting point of 108 to 109 °C. Molecule `O=C(c1ccccc1)c1cn2c3ccccc3c3cccc(c1=O)c32` returned a melting point of 158 to 160 °C. In the case of `COC(=O)c1cncc(-c2ccc(OC)cc2)c1`, the melting point lay in the range of 99 to 101 °C. `CN(C)c1ccc(C=O)c(OCC#N)c1` came in with a melting point of 124 to 125 °C.

`CCCCc1nc(Cl)c(CC(=O)OC)n1Cc1ccc(NS(=O)(=O)C(F)(F)F)cc1` came in with a melting point of 154 to 157 °C. `CC(C)c1nc(-c2cccs2)cc(-c2ccc(F)cc2)c1C=C(Br)Br` returned a melting point of 107 to 108 °C. For the molecule `Cn1cc(C(=O)NCc2ccc(Cl)cc2)c(=O)c2cc(CN=[N+]=[N-])ccc21`, the melting point was 219 to 220 °C. With `COc1ccc(C2=CCN(Cc3ccccc3)CC2)cc1OC`, the melting point was in the range of 94 to 96 °C. For `COC1(c2ccc(Sc3ccc4c(c3)CCC(=O)N4C)s2)CCOCC1`, the melting point is 84 to 86 °C.

With `CCOc1cc2nc(CCl)nc(Cl)c2cc1OCC`, the melting point is 109 to 112 °C.

Molecule `Nc1nc(-c2ccncc2)nc2c1c([N+](=O)[O-])nn2C1CCCC1` came in with a melting point of 239 to 241 °C.

Turning to `COc1cc(CCC(=O)O)cc(I)c1O`, the melting point was in the range of 96 to 97 °C. As for `COC(=O)CN(C)C(=S)c1cccc2c(SC(F)(F)F)c(OC)ccc12`, the melting point is 121 to 123 °C.
